Laboratory results published in patent US20260034107A1, “SUBSTITUTED FUSED IMIDAZOLE DERIVATIVES AND METHODS OF TREATING SICKLE CELL DISEASE AND RELATED COMPLICATIONS” (vTv Therapeutics LLC, priority 2019, published 2026).

What was measured:
[1] = tested on: HbF; assay: Western blot analysis of HbF induction in KU812 cells; assay type: cell-based, human; settings: for HbF induction by Western blot: tested concentrations 0.5-20 μM; for increased HbF (Western blot): at concentrations between 0.5 to 5 PM
Experimental: (§1) About 20-50 ug of protein is separated by SDS-polyacrylamide gel electrophoresis, and transferred to nitrocellulose membranes. Membranes are blocked in 5% dry milk containing TBS-T for 30 minutes followed by one hour and incubated with HbF or actin antibodies. After several washes, membranes are incubated with 1:10000 diluted HRP-conjugated secondary antibody (Thermo Scientific), developed with ECL Prime reagent (GE Healthcare Biosciences). Images may be captured on a Bio-Rad Chemi-Doc MP Imaging System and protein bands quantified by densitometry.
(§2) KU812, a human leukemic cell line that expresses the fetal gamma-globin and adult beta-globin genes, was used as a system for screening. […] (See Zein S, Lou R F, Sivanand S, Ramakrishnan V, Mackie A, Li W, Pace BS. KU812 Cell Line: model for identifying fetal hemoglobin inducing drugs. Exp Biol Med (Maywood) 235:1385-94, 2010.) KU812 cells were grown in Iscove's Modified Dulbecco Media (IMDM) and 10% fetal bovine serum until in log phase growth.
Western blot analysis was also conducted to determine level of induction of HbF in KU812 cells by Compounds 73, 134, 473, and 236. Hydroxyurea and hemin were used as positive controls, and ß-actin was used as a protein loading control.

[2] = tested on: KU812 cells; assay: KU812 cell counts and viability by 0.4% Trypan blue exclusion; assay type: cell-based, human; settings: 48 hours, 0.5, 2.5, 5.0 and 20 μM, widest range of drug concentrations
Experimental: as §2
KU812 cells in log growth phase were treated with compounds 73, 134, 473 and 236 (See Table A) at a doses of 0.5, 2.5, 5.0 and 20 μM for 48 hours. At harvest, cell counts and viability were measured by 0.4% Trypan blue exclusion.

[3] = tested on: HbF; assay: Flow cytometry of KU812 cells for HbF positive cells (F-cells) and MFI; assay type: cell-based, human; settings: flow cytometry, 0.5, 2.5, 5, 10, and 20 μM
Experimental: (§3) About 5×10^5 cells are harvested after treatment with compound, washed twice with ice cold phosphate buffered saline and resuspended in 4% paraformaldehyde for 40 minutes at 37° C. Fixed cells are permeabilized with ice-cold acetone/methanol (4:1) and washed with phosphate buffered saline followed by incubation with FITC-conjugated anti-HbF antibody (1:1000, Abcam) for 20 minutes. The labeled cells may be analyzed using a Becton Dickerson LSR-II flow cytometer (BD Bioscience, San Jose, CA, USA) and FlowJo v0.9 software.
as §2
Flow cytometry was conducted for KU812 cells following treatment with Compounds 473 and 236 at various concentrations (0.5, 2.5, 5, 10, and 20 μM). […] Compounds 73 and 134 were not analyzed by flow cytometry.

[4] = tested on: sickle erythroid progenitor cells; assay: Anti-sickling activity in sickle erythroid progenitor cells under hypoxia; assay type: cell-based; settings: 0.5 μM and 2.5 μM, 48 hours, hypoxia (1% O2 and 5% CO2)
Experimental: As described above, sickle erythroid progenitor cells were cultured for 10 days and then treated with Compound 473 for 48 hours at concentrations of 0.5 μM and 2.5 μM or with hemin (about 50 μM) or with HU (about 100 μM). Treated cells were then subjected to hypoxia conditions (1% O2 and 5% CO2).

[5] = tested on: HbF; assay: Flow cytometry of F-cells in sickle erythroid progenitor cells; assay type: cell-based; settings: 0.5 μM and 2.5 μM, 48 hours
Experimental: as §3
(§4) To test compounds under conditions more closely modeling physiological conditions for one with a SCD, sickle erythroid progenitor cells were cultured for 10 days and then treated with Compound 473 for 48 hours at concentrations of 0.5 μM and 2.5 μM. Treated cells were analyzed by western blot for levels of expression of HbF, HbS, and ß-actin relative to cells treated with DMSO, hemin, or HU. The same treated cells were also analyzed by flow cytometry for y-globin gene expression relative to cells treated with DMSO, hemin, or HU.

[6] = tested on: HbS; assay: Western blot of HbS protein in sickle erythroid progenitor cells; assay type: cell-based; settings: 0.5 μM and 2.5 μM, 48 hours
Experimental: as §1, §4

[7] = tested on: γ-globin; assay: γ-globin / HbF expression in sickle erythroid progenitor cells; assay type: cell-based; settings: 48 hours
Experimental: as §1
About 5×10^5 cells are harvested after treatment with compound, washed twice with ice cold phosphate buffered saline and resuspended in 4% paraformaldehyde for 40 minutes at 37° C. […] The labeled cells may be analyzed using a Becton Dickerson LSR-II flow cytometer (BD Bioscience, San Jose, CA, USA) and FlowJo v0.9 software.
as §4, with “The same treated cells were also analyzed by flow cytometry for y-globin gene expression relative to cells treated with DMSO, hemin, or HU.” left out

COCCNC(=O)c1cnc2c(c1)nc(Nc1nc3ccc(OC(F)(F)F)cc3s1)n2C [Compound 73, 3-Methyl-2-(6-trifluoromethoxy-benzothiazol-2-ylamino)-3H-imidazo[4,5-b]pyridine-6-carboxylic acid (2-methoxy-ethyl)-amide]
HbF induction by Western blot [1]: showed HbF induction

CN(C)C(=O)CNC(=O)c1ccc2c(c1)nc(Nc1nc3ccc(C(F)(F)F)cc3s1)n2C [Compound 134, 1-Methyl-2-(6-trifluoromethyl-benzothiazol-2-ylamino)-1H-benzimidazole-5-carboxylic acid dimethylcarbamoylmethyl-amide]
effects on cell growth rates [2]: minimal effects | increased HbF (Western blot) [1]: increased HbF | HbF induction by Western blot [1]: showed HbF induction

Cn1c(Nc2nc3ccc(C(F)(F)F)cc3s2)nc2cc(C(=O)NCCOCCO)ccc21 [Compound 236, 1-Methyl-2-(6-trifluoromethyl-benzothiazol-2-ylamino)-1H-benzoimidazole-5-carboxylic acid [2-(2-hydroxy-ethoxy)-ethyl]-amide]
HbF induction by Western blot [1]: did not show significant induction of HbF | mean fluorescence intensity (MFI) [3]: some increase in MFI | number of HbF positive cells (F-cells) [3]: did not significantly increase F-cells

Cn1c(Nc2nc3ccc(C(F)(F)F)cc3s2)nc2cc(C(=O)NCCOCCO)cnc21 [Compound 473, N-[2-(2-Hydroxyethoxy)ethyl]-3-methyl-2-[[6-(trifluoromethyl)-1,3-benzothiazol-2-yl]amino]imidazo[4,5-b]pyridine-6-carboxamide]
percent of sickled cells compared to DMSO control [4]: significantly decreased the percent of sickled cells | effects on cell growth rates [2]: minimal effects | increased HbF (Western blot) [1]: increased HbF | HbF induction by Western blot [1]: showed HbF induction | mean fluorescence intensity (MFI) [3]: increased mean fluorescence intensity | number of HbF positive cells (F-cells) [3]: increase in the number of HbF positive cells | F-cell levels by flow cytometry [5]: Increased F-cell levels | HbS protein levels [6]: without affecting HbS protein levels | γ-globin gene expression induction ([7]; 0.5 μM): 1.6 fold | γ-globin gene expression induction ([7]; 2.5 μM): 1.9 fold
